# Reference: paper PMC7125863 (Bioorganic & Medicinal Chemistry, 2013)
# What was measured:
# [1] = system: human cytomegalovirus (HCMV) strain Davis; test: Anti-HCMV assay, strain Davis; type: cell-based; settings: in parentheses
# in vitro = settings: human
# [2] = system: human cytomegalovirus (HCMV) strain AD-169; test: Anti-HCMV assay, strain AD169; type: cell-based; settings: in parentheses
# [3] = biological target: wild-type HIV-1 reverse transcriptase (Human immunodeficiency virus type 1 group M subtype B, UniProt P04585); test: RT enzyme assay, wild-type RT; type: biochemical
# HIV-1 (IIIB) wild type = test: Anti-HIV assay in MT-4 cell cultures; settings: MT-4 cells
# HIV-1 RT K103N = HIV-1 RT K103N (Human immunodeficiency virus type 1 group M subtype B, UniProt P04585, K690N); test: biochemical
# HIV-1 RT K103N/Y181C = HIV-1 RT K103N/Y181C (Human immunodeficiency virus type 1 group M subtype B, UniProt P04585, K690N/Y768C); test: biochemical
SMILES,SI [1],CC50 (in vitro),SI [2],other results
"Nc1ccn(C[C@@H](CO)OCP(=O)(O)O)c(=O)n1.O.O [Cidofovir, reference compound]",63,63 µM,64,–
"Cc1ccccc1OCCn1ccc(=O)n(Cc2ccccc2)c1=O [Compound 5, 3-Benzyl-1-[2-(2-methylphenoxy)ethyl]uracil]",–,–,–,Ki [3]: > 100 µM
"Cc1cccc(OCCn2ccc(=O)n(Cc3ccccc3)c2=O)c1 [Compound 6, 3-Benzyl-1-[2-(3-methylphenoxy)ethyl]uracil]",–,–,–,Ki [3]: > 100 µM
"Cc1ccc(OCCn2ccc(=O)n(Cc3ccccc3C)c2=O)cc1 [Compound 15, 3-(2-Methylbenzyl)-1-[2-(4-methylphenoxy)ethyl]uracil]",–,–,–,Ki [3]: > 100 µM
"Cc1ccc(OCCn2ccc(=O)n(Cc3cccc(C)c3)c2=O)cc1 [Compound 16, 3-(3-Methylbenzyl)-1-[2-(4-methylphenoxy)ethyl]uracil]",–,–,–,"SI, selectivity index, ratio CC50/IC50 (HIV-1 (IIIB) wild type): ⩾11"
"Cc1ccc(OCCn2ccc(=O)n(Cc3cc(C)cc(C)c3)c2=O)cc1 [Compound 19, 1-[2-(4-Methylphenoxy)ethyl]-3-(3,5-dimethylbenzyl)uracil]",–,–,–,Ki (HIV-1 RT K103N): > 26 µM; Ki (HIV-1 RT K103N/Y181C): > 26 µM
"Cc1ccc(OCCn2ccc(=O)n(Cc3c(C)cc(C)cc3C)c2=O)cc1 [Compound 20, 1-[2-(4-Methylphenoxy)ethyl]-3-(2,4,6-trimethylbenzyl)-uracil]",–,–,–,Ki [3]: > 100 µM
"Cc1cc(C)cc(Cn2c(=O)ccn(C/C=C/c3ccccc3)c2=O)c1 [Compound 30, 1-Cinnamyl-3-(3,5-dimethylbenzyl)uracil]",–,–,–,Ki (HIV-1 RT K103N/Y181C): > 100 µM
"O=c1ccn(C/C=C/c2ccccc2)c(=O)n1Cc1cc(F)cc(F)c1 [Compound 31, 1-Cinnamyl-3-(3,5-difluorobenzyl)uracil]",1.13,51 µM,1.38,–
"O=c1ccn(C/C=C/c2ccccc2)c(=O)n1Cc1cc(Cl)cc(Cl)c1 [Compound 32, 1-Cinnamyl-3-(3,5-dichlorobenzyl)uracil]",9,≥ 100 µM,11,Ki (HIV-1 RT K103N/Y181C): > 100 µM
"O=c1ccn(C/C=C/c2ccccc2)c(=O)n1Cc1cc(Br)cc(Br)c1 [Compound 33, 1-Cinnamyl-3-(3,5-dibromobenzyl)uracil]",–,–,–,Ki (HIV-1 RT K103N/Y181C): > 100 µM
"Cc1cc(Br)cc(Cn2c(=O)ccn(C/C=C/c3ccccc3)c2=O)c1 [Compound 34, 3-(3-Bromo-5-methylbenzyl)-1-cinnamyluracil]",5,≥ 100 µM,6,–
"O=c1ccn(C/C=C/c2ccccc2)c(=O)n1Cc1cccc2ccccc12 [Compound 35, 1-Cinnamyl-3-(1-naphthylmethyl)uracil]",16,≥ 100 µM,7,–
"Nc1nc2c(ncn2COC(CO)CO)c(=O)[nH]1 [Ganciclovir, reference compound]",23,132 µM,21,–
